{"source": "patent EP4810038A1", "about": "“METHOD FOR TREATING ALK-POSITIVE OR ROS1-POSITIVE NON-SMALL CELL LUNG CANCER” (Shenzhen TargetRx Co., Ltd., priority 2023, dated 2025)", "test": "Phase I clinical trial: safety and tolerability (TRAE, CNS-related AE, DLT, MTD, RP2D)", "type": "in vivo", "details": "for Any TRAE / TRAE Anemia / TRAE Diarrhea / TRAE Edema / TRAE Elevated alanine aminotransferase / TRAE Elevated creatinine / TRAE Hypercholesterolemia / TRAE Hypertriglyceridemia / TRAE Hyperuricemia / TRAE Hypoproteinemia / TRAE Increased AST / TRAE Increased LDL cholesterol / TRAE Increased creatine phosphokinase / TRAE Increased glutamine transferase / TRAE Increased lipase / TRAE Peripheral neuropathy / TRAE Positive for occult blood in urine / TRAE Proteinuria / TRAE Weight gain: In total n=198", "text": "An adverse event will be described using MedDRA (Medical Dictionary for Regulatory Activities). Analysis of an adverse event will be based on a treatment emergent adverse event (TEAE). TEAE is defined as an adverse event that occur or worsen after a treatment/medication.\nSubjects in all the dose groups received a single dose on day 1 (D1), and the blood samples were collected for pharmacokinetic (PK) assay and tolerability observation. […] The administration frequency for the subjects in the subsequent dose groups after entering the multiple-dose period was determined based on the obtained PK and tolerability data. In this trial, the administration frequency for all the subjects could be adjusted throughout the trial based on the continuously acquired safety and PK data. The four lower dose groups (5 mg, 10 mg, 20 mg and 40 mg) used an accelerated titration design, with one subject enrolled in each dose group. […] The 60 mg dose group and the subsequent dose groups followed a \"3+3\" dose escalation method, and the MTD was determined. […] During the dose escalation, if a dose group was confirmed to have a preliminary antitumor effect and manageable safety (e.g., no DLT occurred in 3 subjects or only 1 out of 6 subjects experienced DLT), the dose level could be expanded after a discussion and confirmation by the researcher and the sponsor.", "note": "Entries after “also recorded” stand apart in the source; their conditions may differ."}
{"smiles": "[2H]C([2H])([2H])n1nc2c(c1C#N)-c1cnc(N)c(c1)O[C@H](C)c1cc(F)ccc1C(=O)N(C)C2", "note": "[compound A, (10R)-7-amino-12-fluoro-2-(methyl-d3)-10,16-dimethyl-15-oxo-10,15,16,17-tetrahydro-2H-8,4-(metheno)pyrazolo[4,3-h][2,5,11]benzoxadiazacyclotetradecine-3-carbonitrile]", "values": [{"measurement": "CNS-related AE: Cognitive impairment", "setting": "Any level", "result": "1 (0.5) number of cases (%)"}, {"measurement": "CNS-related AE: Depression", "setting": "Any level", "result": "3 (1.5) number of cases (%)"}, {"measurement": "CNS-related AE: Disorganized speech", "setting": "Any level", "result": "1 (0.5) number of cases (%)"}, {"measurement": "CNS-related AE: Impact on cognition", "setting": "Any level", "result": "5 (2.5) number of cases (%)"}, {"measurement": "CNS-related AE: Impact on emotion", "setting": "Any level", "result": "4 (2.0) number of cases (%)"}, {"measurement": "CNS-related AE: Impact on language", "setting": "Any level", "result": "2 (1.0) number of cases (%)"}, {"measurement": "CNS-related AE: Impact on sleep", "setting": "Any level", "result": "7 (4.5) number of cases (%)"}, {"measurement": "CNS-related AE: Insomnia", "setting": "Any level", "result": "1 (0.5) number of cases (%)"}, {"measurement": "CNS-related AE: Memory impairment", "setting": "Any level", "result": "3 (1.5) number of cases (%)"}, {"measurement": "CNS-related AE: Mental disorder", "setting": "Any level", "result": "1 (0.5) number of cases (%)"}, {"measurement": "CNS-related AE: Poor sleep quality", "setting": "Any level", "result": "6 (4.0) number of cases (%)"}, {"measurement": "CNS-related AE: Speech disorder", "setting": "Any level", "result": "1 (0.5) number of cases (%)"}, {"measurement": "Any TRAE", "setting": "any level", "result": "184 (92.9%) number of cases (%)"}, {"measurement": "TRAE Anemia", "setting": "any level", "result": "27 (13.6) number of cases (%)"}, {"measurement": "TRAE Diarrhea", "setting": "any level", "result": "13 (6.6) number of cases (%)"}, {"measurement": "TRAE Edema", "setting": "any level", "result": "51(25.8) number of cases (%)"}, {"measurement": "TRAE Elevated alanine aminotransferase", "setting": "any level", "result": "18 (9.1) number of cases (%)"}, {"measurement": "TRAE Elevated creatinine", "setting": "any level", "result": "12 (6.1) number of cases (%)"}, {"measurement": "TRAE Hypercholesterolemia", "setting": "any level", "result": "154 (77.8) number of cases (%)"}, {"measurement": "TRAE Hypertriglyceridemia", "setting": "any level", "result": "147 (74.2) number of cases (%)"}, {"measurement": "TRAE Hyperuricemia", "setting": "any level", "result": "27 (13.6) number of cases (%)"}, {"measurement": "TRAE Hypoproteinemia", "setting": "any level", "result": "10 (5.1) number of cases (%)"}, {"measurement": "TRAE Increased AST", "setting": "any level", "result": "20 (10.1) number of cases (%)"}, {"measurement": "TRAE Increased LDL cholesterol", "setting": "any level", "result": "51 (25.8) number of cases (%)"}, {"measurement": "TRAE Increased creatine phosphokinase", "setting": "any level", "result": "11 (5.6) number of cases (%)"}, {"measurement": "TRAE Increased glutamine transferase", "setting": "any level", "result": "10 (5.1) number of cases (%)"}, {"measurement": "TRAE Increased lipase", "setting": "any level", "result": "19 (9.6) number of cases (%)"}, {"measurement": "TRAE Peripheral neuropathy", "setting": "any level", "result": "38(19.2) number of cases (%)"}, {"measurement": "TRAE Positive for occult blood in urine", "setting": "any level", "result": "13 (6.6) number of cases (%)"}, {"measurement": "TRAE Proteinuria", "setting": "any level", "result": "10 (5.1) number of cases (%)"}, {"measurement": "TRAE Weight gain", "setting": "any level", "result": "91 (46.0) number of cases (%)"}, {"measurement": "Any TRAE", "setting": "≥3", "result": "73 (36.9%) number of cases (%)"}, {"measurement": "TRAE Anemia", "setting": "≥3", "result": "4 (2.0) number of cases (%)"}, {"measurement": "TRAE Diarrhea", "setting": "≥3", "result": "0 number of cases (%)"}, {"measurement": "TRAE Edema", "setting": "≥3", "result": "3(1.5) number of cases (%)"}, {"measurement": "TRAE Elevated alanine aminotransferase", "setting": "≥3", "result": "0 number of cases (%)"}, {"measurement": "TRAE Elevated creatinine", "setting": "≥3", "result": "0 number of cases (%)"}, {"measurement": "TRAE Hypercholesterolemia", "setting": "≥3", "result": "18 (9.1) number of cases (%)"}, {"measurement": "TRAE Hypertriglyceridemia", "setting": "≥3", "result": "38 (19.2) number of cases (%)"}, {"measurement": "TRAE Hyperuricemia", "setting": "≥3", "result": "4 (2.0) number of cases (%)"}, {"measurement": "TRAE Hypoproteinemia", "setting": "≥3", "result": "0 number of cases (%)"}, {"measurement": "TRAE Increased AST", "setting": "≥3", "result": "0 number of cases (%)"}, {"measurement": "TRAE Increased LDL cholesterol", "setting": "≥3", "result": "0 number of cases (%)"}, {"measurement": "TRAE Increased creatine phosphokinase", "setting": "≥3", "result": "0 number of cases (%)"}, {"measurement": "TRAE Increased glutamine transferase", "setting": "≥3", "result": "2 (1.0) number of cases (%)"}, {"measurement": "TRAE Increased lipase", "setting": "≥3", "result": "1 (0.5) number of cases (%)"}, {"measurement": "TRAE Peripheral neuropathy", "setting": "≥3", "result": "1(0.5) number of cases (%)"}, {"measurement": "TRAE Positive for occult blood in urine", "setting": "≥3", "result": "0 number of cases (%)"}, {"measurement": "TRAE Proteinuria", "setting": "≥3", "result": "0 number of cases (%)"}, {"measurement": "TRAE Weight gain", "setting": "≥3", "result": "14 (7.1) number of cases (%)"}, {"measurement": "incidence of other AE, 60 mg dose group versus 80 mg dose group", "setting": "dose escalation and dose expansion phases", "result": "significantly lower"}, {"measurement": "dose-limiting toxicity (DLT)", "setting": "dose escalation phase, 5 to 125 mg", "result": "No DLT was observed; also recorded: No dose-limiting toxicity was observed"}, {"measurement": "MTD", "setting": "dose escalation up to 125 mg", "result": "not reached"}, {"measurement": "Any CNS-related AE", "setting": "≥3", "result": "2 (1.0) number of cases (%)"}, {"measurement": "CNS-related AE: Anger", "setting": "≥3", "result": "0 number of cases (%)"}, {"measurement": "CNS-related AE: Cognitive impairment", "setting": "≥3", "result": "0 number of cases (%)"}, {"measurement": "CNS-related AE: Depression", "setting": "≥3", "result": "0 number of cases (%)"}, {"measurement": "CNS-related AE: Disorganized speech", "setting": "≥3", "result": "0 number of cases (%)"}, {"measurement": "CNS-related AE: Impact on cognition", "setting": "≥3", "result": "1 (0.5) number of cases (%)"}, {"measurement": "CNS-related AE: Impact on language", "setting": "≥3", "result": "1 (0.5) number of cases (%)"}, {"measurement": "CNS-related AE: Insomnia", "setting": "≥3", "result": "0 number of cases (%)"}, {"measurement": "CNS-related AE: Memory impairment", "setting": "≥3", "result": "0 number of cases (%)"}, {"measurement": "CNS-related AE: Mental disorder", "setting": "≥3", "result": "1 (0.5) number of cases (%)"}, {"measurement": "CNS-related AE: Poor sleep quality", "setting": "≥3", "result": "0 number of cases (%)"}, {"measurement": "CNS-related AE: Speech disorder", "setting": "≥3", "result": "1 (0.5) number of cases (%)"}]}
